Where two headings read alike, the source gives them in different places.
Tests used:
Vero cells [1] = assay: Cytotoxicity assay in Vero cells (MTT); assay type: cell-based, African green monkey (Cercopithecus aethiops)
Experimental: (§1) The Vero cell (ATCC, CCL-81) was cultured in Dulbecco’s modified Eagle medium (DMEM), pH 7.3, supplemented with 10% FBS (v/v) and a penicillin/streptomycin solution (0.1 mg mL^–1/100 U mL^–1). The cells were incubated at 37 °C in a humidified atmosphere with 5% CO2. The MTT reduction assay (3-(4,5-dimethylthiazol-2-yl)-2,5-diphenyltetrazolium bromide) was adapted from Mosmann[43] to evaluate cytotoxicity. For this assay, 1 × 10^4 cells per well were seeded in 96-well plates and incubated overnight until reaching approximately 80% confluence. Wells were treated with different compound concentrations (500 to 7.8 μM) in triplicate. The culture medium was replaced with 0.5 mg mL^–1 MTT solution, and the plate was incubated for 3 h. The resulting formazan crystals were solubilized in DMSO, and absorbance was measured using a Spectramax spectrophotometer at a wavelength of 540 nm to assess cell viability.

[2] = Cytotoxicity assay in macrophage RAW 264.7 (resazurin); assay type: cell-based; conditions: mouse, RAW 264.7 macrophages, pH 7.2; RAW 264.7 cells, 200 to 1.56 μM, 48 h treatment, resazurin
Experimental: (§2) RAW 264.7 cells were cultured in Roswell Park Memorial Institute (RPMI) medium, pH 7.2, supplemented with 10% (v/v) heat-inactivated fetal bovine serum (FBS) (Gibco), 100 μg mL^–1 penicillin (Sigma), 2 g L^–1 sodium bicarbonate, 2 mM L-glutamine, and 25 mM HEPES, and maintained at 37 °C in a humidified incubator with 5% CO2 atmosphere.[27] The cells were then seeded into sterile 96-well plates at a density of 5 × 10^4 cells/well, followed by the addition of the compounds at a concentration of 10 μM for screening, and in a range of 200 μM to 1.56 μM for the determination of the 50% cytotoxic concentration (CC50). Controls included 1% DMSO and amphotericin B at 3.125 μg mL^–1, with 48 h of treatment. Cell viability was assessed using 1 mM resazurin, with subsequent readings performed on a Spectramax spectrophotometer at wavelengths of 570 and 600 nm.

[3] = system: L. braziliensis MHOM/BR/75/M2904; assay: In vitro infection of RAW 264.7 macrophages by L. braziliensis-GFP (leishmanicidal screening); assay type: cell-based; conditions: Leishmania braziliensis; for viability at 10 µM: RAW264.7, 48 h, read-out: parasite viability; for IC50: RAW264.7, suggested from the 10 μM screening, L. braziliensis in RAW 264.7 macrophages, 48 h
Experimental: L. braziliensis MHOM/BR/75/M2904 was cultured in Grace’s insect medium (pH 6.5) supplemented with 10% (v/v) heat-inactivated fetal bovine serum (FBS) (Gibco), 100 μg mL^–1 penicillin (Sigma), and 2 mM L-glutamine, maintained at 25 °C in a B.O.D. incubator. Using the stationary phase culture on the seventh day, 2.0 × 10^6Leishmania/well were transferred to a 96-well plate containing 1.0 × 10^5 preadhered macrophages/well, following an adapted infection protocol.[44] After applying the compounds at a concentration of 10 μM, 1% DMSO and amphotericin B (3.125 μg mL^–1) were used as controls. Treatments were conducted for 48 h, followed by macrophage lysis using 0.1% SDS solution, which was subsequently neutralized with complete Grace’s medium. To recover promastigote forms, the plate was incubated for 5 days. Fluorescence was measured using a Spectramax fluorometer, with excitation at 490 nm and emission at 520 nm.

RAW 264.7 macrophages = assay: Cytotoxicity assay in macrophage RAW 264.7 (resazurin); assay type: cell-based; conditions: RAW 264.7 cells, highest concentration (200 μM), 48 h
Experimental: as §2

Vero cells [4] = system: Vero cells; parameters: method as in PMID 29877104; conditions: 5 × 10^4 cells per well, cited from earlier work
L. amazonensis = system: L. amazonensis; parameters: method as in PMID 32272211; conditions: L. amazonensis amastigote stage, 48 h treatment, cited from earlier work
[5] = system: murine peritoneal macrophages; parameters: method as in PMID 36375398; conditions: cited from earlier work
human monocyte cell line = system: human monocyte cell line; parameters: method as in PMID 32272211; conditions: 48 h treatment, cited from earlier work
[6] = Cytotoxicity assay in Vero cells (MTT); assay type: cell-based, African green monkey (Cercopithecus aethiops); conditions: African green monkey, Vero cells (ATCC CCL-81), pH 7.3, MTT, 1 × 10^4 cells per well, 500 to 7.8 μM
Experimental: as §1

Vero cells [7] = system: Vero cells; parameters: method as in earlier work; conditions: 15 μg mL^–1 (equivalent to 16.23 μM), neutral red cytotoxicity assay; cited from earlier work
[8] = all tested concentrations (500 to 7.8 μM)
[9] = converted from μg mL^–1, read-out: CC50 (equivalent)
[10] = high concentrations (500 and 250 μM)

Row | Structure (SMILES) | survival rate (Vero cells [1]; [8]) | CC50 at 48 h [2] | cell viability at the highest concentration compared to the control (RAW 264.7 macrophages) | survival rate (Vero cells [1]; [10]) | CC50 [6] | also measured
1 | Cc1ccc(C(C)C)cc1OCC(=O)Nc1ccc(F)cc1 [Compound 9, N-(4-Fluorophenyl)-2-(5-isopropyl-2-methylphenoxy)acetamide] | above 50% | > 200 µM |  |  |  | 
2 | Cc1ccc(C(C)C)cc1OCC(=O)Nc1ccccc1F [Compound 7, N-(2-Fluorophenyl)-2-(5-isopropyl-2-methylphenoxy)acetamide] | above 50% | > 200 µM | no significant differences |  |  | viability at 10 µM [3]: ~50%; IC50 [3]: ~10 µM
3 | Cc1ccc(C(C)C)cc1O [carvacrol] |  |  |  |  |  | CC50 (Vero cells [4]; [9]): 572 µM; CC50 (Vero cells [4]): 86 ± 1.41 μg mL^–1; IC50 (L. amazonensis; converted from μg mL^–1, read-out: IC50 (equivalent)): ~182 µM; IC50 (L. amazonensis): approximately 27.40 μg mL^–1; CC50 ([5]; 24 h treatment, converted from μg mL^–1, read-out: CC50 (equivalent)): 505 µM; CC50 ([5]; 24 h treatment): 75.91 μg mL^–1; CC50 ([5]; 72 h treatment, converted from μg mL^–1, read-out: CC50 (equivalent)): 268 µM; CC50 ([5]; 72 h treatment): 40.23 μg mL^–1; CC50 (human monocyte cell line; [9]): 427 µM; CC50 (human monocyte cell line): 64.10 μg mL^–1
4 | Cc1ccc(C(C)C)cc1OCC(=O)Nc1cccc(Br)c1 [Compound 5, N-(3-Bromophenyl)-2-(5-isopropyl-2-methylphenoxy)acetamide] | above 50% | > 200 µM | no significant differences |  |  | viability at 10 µM [3]: ~50%; IC50 [3]: ~10 µM
5 | Cc1ccc(C(C)C)cc1OCC(=O)Nc1ccccc1 [Compound 10, 2-(5-Isopropyl-2-methylphenoxy)-N-phenylacetamide] | above 50% | > 200 µM |  |  |  | 
6 | Cc1ccc(C(C)C)cc1OCC(=O)Nc1ccccc1Cl [Compound 1, N-(2-Chlorophenyl)-2-(5-isopropyl-2-methylphenoxy)acetamide] |  | > 200 µM | no significant differences | below 50% | 200 µM | 
7 | C[C@@H]1[C@H](O)[C@@H](C)/C=C/C=C/C=C/C=C/C=C/C=C/C=C/[C@H](O[C@@H]2O[C@H](C)[C@@H](O)[C@H](N)[C@@H]2O)C[C@@H]2O[C@](O)(C[C@@H](O)C[C@@H](O)[C@H](O)CC[C@@H](O)C[C@@H](O)CC(=O)O[C@H]1C)C[C@H](O)[C@H]2C(=O)O [amphotericin B] |  |  |  |  |  | toxicity (Vero cells [7]): over 70%
8 | Cc1ccc(C(C)C)cc1OCC(=O)Nc1cccc(Cl)c1 [Compound 2, N-(3-Chlorophenyl)-2-(5-isopropyl-2-methylphenoxy)acetamide] | above 50% | > 200 µM |  |  |  | 
9 | Cc1ccc(C(C)C)cc1OCC(=O)Nc1ccc(Cl)cc1 [Compound 3, N-(4-Chlorophenyl)-2-(5-isopropyl-2-methylphenoxy)acetamide] |  | > 200 µM |  | below 50% | 449 µM | 
10 | Cc1ccc(C(C)C)cc1OCC(=O)Nc1cccc(F)c1 [Compound 8, N-(3-Fluorophenyl)-2-(5-isopropyl-2-methylphenoxy)acetamide] |  | > 200 µM |  | below 50% | 337 µM | 
11 | Cc1ccc(C(C)C)cc1OCC(=O)Nc1ccccc1Br [Compound 4, N-(2-Bromophenyl)-2-(5-isopropyl-2-methylphenoxy)acetamide] |  | > 200 µM |  | below 50% | 372 µM | 
12 | Cc1ccc(C(C)C)cc1OCC(=O)Nc1ccc(Br)cc1 [Compound 6, N-(4-Bromophenyl)-2-(5-isopropyl-2-methylphenoxy)acetamide] |  | > 200 µM | no significant differences | below 50% | 182 µM | 

From publication PMC12059944, “Synthesis and Antileishmanial Evaluation of N-Phenyl-2-phenoxyacetamides Derived from Carvacrol” (ACS Omega, 2025)
